Where “and” joins values, the source holds several entries; their conditions need not be identical. Equal entries are not always repeated.
Key:
HDAC6 = molecular target: T1, HDAC6 (Homo sapiens, UniProt Q9UBN7); experiment: HDAC-Glo assay; format: biochemical; set-up: purchased BPS Bioscience 50006; conditions: sheet S2d
T1 sequence (Q9UBN7 1-1215): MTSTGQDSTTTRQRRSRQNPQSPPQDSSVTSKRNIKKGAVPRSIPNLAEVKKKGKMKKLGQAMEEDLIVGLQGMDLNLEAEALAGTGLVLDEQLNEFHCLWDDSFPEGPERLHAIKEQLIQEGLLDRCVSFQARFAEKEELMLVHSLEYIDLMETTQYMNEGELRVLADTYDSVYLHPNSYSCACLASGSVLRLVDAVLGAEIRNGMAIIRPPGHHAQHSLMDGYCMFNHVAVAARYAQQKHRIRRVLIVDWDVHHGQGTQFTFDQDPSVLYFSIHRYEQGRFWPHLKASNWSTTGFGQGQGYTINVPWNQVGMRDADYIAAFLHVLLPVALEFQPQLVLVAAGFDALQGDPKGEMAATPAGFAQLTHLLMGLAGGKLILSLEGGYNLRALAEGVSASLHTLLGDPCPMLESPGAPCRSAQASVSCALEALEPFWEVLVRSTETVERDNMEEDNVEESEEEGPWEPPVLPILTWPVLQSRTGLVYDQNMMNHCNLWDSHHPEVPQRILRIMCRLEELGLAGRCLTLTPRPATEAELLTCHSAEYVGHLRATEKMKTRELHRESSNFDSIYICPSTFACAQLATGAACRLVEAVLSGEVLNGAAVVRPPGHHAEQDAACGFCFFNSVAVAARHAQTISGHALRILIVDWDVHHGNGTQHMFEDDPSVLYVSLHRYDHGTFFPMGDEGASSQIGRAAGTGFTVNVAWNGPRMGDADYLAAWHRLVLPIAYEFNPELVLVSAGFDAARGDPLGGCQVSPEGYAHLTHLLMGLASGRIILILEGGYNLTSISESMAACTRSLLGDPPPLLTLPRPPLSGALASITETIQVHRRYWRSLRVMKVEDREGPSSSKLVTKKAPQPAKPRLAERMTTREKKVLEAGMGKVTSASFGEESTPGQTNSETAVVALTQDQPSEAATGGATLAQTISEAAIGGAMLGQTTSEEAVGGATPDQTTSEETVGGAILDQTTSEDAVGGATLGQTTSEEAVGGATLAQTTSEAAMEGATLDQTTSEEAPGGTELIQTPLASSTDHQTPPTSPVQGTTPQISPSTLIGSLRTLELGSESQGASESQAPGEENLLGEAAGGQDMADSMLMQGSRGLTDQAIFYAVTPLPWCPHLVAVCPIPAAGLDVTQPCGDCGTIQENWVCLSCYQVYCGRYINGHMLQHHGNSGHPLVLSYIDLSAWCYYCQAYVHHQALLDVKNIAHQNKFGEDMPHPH
Description: (§1) To validate the inhibition of HDACs by LA and LM and elaborate on the structure-activity relationship (SAR) of enantiomers as well as oxidized versus reduced forms of the molecules, we performed enzyme activity assays for recombinant HDAC1,2,3,6,8 as well as FRET-based binding assay for recombinant HDAC10.
(§2) The experiments were performed according to ref. [48]. […] Drug dosing was performed with a D300e Digital Dispenser (Tecan). HDACs (7 ng/mL for HDAC1, 25 ng/mL for HDAC2, 200 ng/mL for HDAC3/Ncor2 complex, 100 ng/mL for HDAC6, 200 ng/mL for HDAC8) and inhibitors were incubated together at room temperature (RT) for 30 min. After the addition of the HDAC-Glo™ I/II reagent, plates were shaken (800 rpm orbital shaker, 30 s), centrifuged (300 g, 1 min), and incubated at RT for 30 min. Luminescence was detected with a CLARIOstar (BMG Labtech) plate reader.

HDAC8 = molecular target: T2, HDAC8 (Homo sapiens, UniProt Q9BY41); experiment: HDAC-Glo assay; format: biochemical; set-up: purchased BPS Bioscience 50008; conditions: sheet S2d
T2 sequence (Q9BY41 1-377): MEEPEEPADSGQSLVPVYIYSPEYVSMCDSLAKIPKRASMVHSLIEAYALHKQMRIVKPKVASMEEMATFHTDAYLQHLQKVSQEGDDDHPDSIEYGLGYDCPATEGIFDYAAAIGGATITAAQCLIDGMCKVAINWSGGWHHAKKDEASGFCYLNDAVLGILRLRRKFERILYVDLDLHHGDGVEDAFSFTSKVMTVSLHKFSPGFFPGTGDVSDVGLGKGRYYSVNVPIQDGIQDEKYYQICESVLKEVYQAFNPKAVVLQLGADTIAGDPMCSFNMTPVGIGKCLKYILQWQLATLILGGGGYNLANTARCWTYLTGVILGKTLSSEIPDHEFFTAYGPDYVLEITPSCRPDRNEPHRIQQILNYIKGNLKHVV
Description: as §1, §2

HDAC1 = HDAC1 (Homo sapiens, UniProt Q13547); experiment: HDAC-Glo assay; format: biochemical; set-up: purchased BPS Bioscience 50051; conditions: sheet S2d
HDAC1, sequence (Q13547 whole entry): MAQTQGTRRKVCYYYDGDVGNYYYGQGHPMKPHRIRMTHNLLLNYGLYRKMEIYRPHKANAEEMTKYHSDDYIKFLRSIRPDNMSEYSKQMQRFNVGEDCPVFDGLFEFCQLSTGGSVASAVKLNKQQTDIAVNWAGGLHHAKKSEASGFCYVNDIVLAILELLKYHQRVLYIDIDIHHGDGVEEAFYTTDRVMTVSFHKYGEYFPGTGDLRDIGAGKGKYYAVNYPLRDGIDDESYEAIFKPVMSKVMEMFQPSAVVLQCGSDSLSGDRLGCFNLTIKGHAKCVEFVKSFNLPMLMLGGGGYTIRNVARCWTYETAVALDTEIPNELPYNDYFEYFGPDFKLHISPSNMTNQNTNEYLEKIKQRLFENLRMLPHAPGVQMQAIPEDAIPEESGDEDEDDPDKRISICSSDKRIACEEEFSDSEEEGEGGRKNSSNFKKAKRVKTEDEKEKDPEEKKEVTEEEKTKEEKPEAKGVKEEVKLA
Description: as §1, §2

TwinStrep-GST-HDAC10 = molecular target: T3, TwinStrep-GST-HDAC10 (Homo sapiens, UniProt Q969S8); experiment: HDAC10 TR-FRET assay; format: binding; conditions: sheet S2e
T3 sequence (Q969S8 1-669): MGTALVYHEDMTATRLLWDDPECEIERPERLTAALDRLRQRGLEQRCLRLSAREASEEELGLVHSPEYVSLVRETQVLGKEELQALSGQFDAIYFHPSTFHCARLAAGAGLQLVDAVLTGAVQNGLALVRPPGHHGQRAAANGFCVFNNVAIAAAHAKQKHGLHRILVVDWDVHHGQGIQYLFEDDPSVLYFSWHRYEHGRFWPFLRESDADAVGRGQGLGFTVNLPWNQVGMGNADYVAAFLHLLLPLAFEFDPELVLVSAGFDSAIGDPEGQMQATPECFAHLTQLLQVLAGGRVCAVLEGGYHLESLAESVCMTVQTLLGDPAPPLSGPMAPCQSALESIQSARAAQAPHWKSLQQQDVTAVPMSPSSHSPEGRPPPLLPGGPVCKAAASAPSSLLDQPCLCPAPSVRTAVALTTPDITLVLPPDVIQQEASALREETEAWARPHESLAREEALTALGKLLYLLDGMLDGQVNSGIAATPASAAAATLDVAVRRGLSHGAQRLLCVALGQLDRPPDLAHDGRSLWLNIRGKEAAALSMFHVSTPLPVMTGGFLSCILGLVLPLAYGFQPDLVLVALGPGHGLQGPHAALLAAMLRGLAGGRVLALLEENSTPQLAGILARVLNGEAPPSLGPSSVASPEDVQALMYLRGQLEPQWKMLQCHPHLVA
Description: as §1
Inhibitors with a D300e Digital Dispenser (Tecan). After drug dosing to the premixed assay reagents in buffer, plates were shaken (800 rpm orbital shaker, 30 s), centrifuged (300g, 1 min), and incubated at RT in the dark for 90 min. TR-FRET was measured with a CLARIOstar (BMG Labtech) plate reader, equipped with TR-FRET filters.

Q: With `O=C(O)CCCCC(S)CCS` (centres unmarked) [LAred] as the molecule, how does the HDAC6 relative activity (HDAC6; log conc -3.30103) read?
A: 1.901 and 1.871 and 1.9083

Q: What about the HDAC6 relative activity (HDAC6; log conc -3.82945) of the same molecule?
A: 3.442 and 3.206 and 3.406

Q: What about the HDAC6 relative activity (HDAC6; log conc -4.35788) of the same molecule?
A: 6.925 and 6.75 and 6.858

Q: What about the HDAC6 relative activity (HDAC6; log conc -4.88629) of the same molecule?
A: 16.7633 and 15.9117 and 16.5726

Q: And the HDAC6 relative activity (HDAC6; log conc -5.41477)?
A: 38.1371 and 36.4753 and 35.86

Q: What about the HDAC6 relative activity (HDAC6; log conc -5.94309) of the same molecule?
A: 60.9287 and 58.1296 and 64.9441

Q: And the HDAC6 relative activity (HDAC6; log conc -6.47756)?
A: 84.471 and 78.2193 and 82.7984

Q: What about the HDAC6 relative activity (HDAC6; log conc -6.87615) of the same molecule?
A: 87.6459 and 83.3784 and 85.1621

Q: What about the HDAC8 relative activity (HDAC8; log conc -3.30103) of the same molecule?
A: 5.5387 and 6.443 and 4.956

Q: And the HDAC8 relative activity (HDAC8; log conc -3.82945)?
A: 15.2478 and 14.986 and 14.6707

Q: What about the HDAC8 relative activity (HDAC8; log conc -4.35788) of the same molecule?
A: 32.9883 and 33.8093 and 29.5437

Q: What about the HDAC8 relative activity (HDAC8; log conc -4.88629) of the same molecule?
A: 65.7743 and 68.9393 and 55.1609

Q: And the HDAC8 relative activity (HDAC8; log conc -5.41477)?
A: 94.4673 and 96.4781 and 81.2779

Q: And the HDAC8 relative activity (HDAC8; log conc -5.94309)?
A: 99.9702 and 99.768 and 95.3061

Q: What about the HDAC8 relative activity (HDAC8; log conc -6.47756) of the same molecule?
A: 102.1 and 101.594 and 89.0594

Q: What about the HDAC8 relative activity (HDAC8; log conc -6.87615) of the same molecule?
A: 104.349 and 101.731 and 91.7247

Q: And the HDAC1 relative activity (HDAC1; log conc -3.30103)?
A: 2.768 and 2.872 and 2.683

Q: What about the HDAC1 relative activity (HDAC1; log conc -3.82945) of the same molecule?
A: 9.265 and 8.951 and 9.199

Q: What about the HDAC1 relative activity (HDAC1; log conc -4.35788) of the same molecule?
A: 26.7114 and 25.7521 and 27.3764

Q: And the HDAC1 relative activity (HDAC1; log conc -4.88629)?
A: 53.7175 and 53.6506 and 52.4863

Q: And the HDAC1 relative activity (HDAC1; log conc -5.41477)?
A: 84.4773 and 84.2156 and 82.4618

Q: What about the HDAC1 relative activity (HDAC1; log conc -5.94309) of the same molecule?
A: 94.7528 and 92.6024 and 91.8471

Q: And the HDAC1 relative activity (HDAC1; log conc -6.47756)?
A: 99.9185 and 101.441 and 101.474

Q: What about the HDAC1 relative activity (HDAC1; log conc -6.87615) of the same molecule?
A: 103.379 and 101.234 and 95.7354

Q: How did the “HDAC10 TR-FRET relative signal” value (TwinStrep-GST-HDAC10; log conc -5.74088) turn out when `O=C(O)CCCCC(S)CCS` (centres unmarked) [R/S Lipoic Acid Reduced] was run?
A: 12.9805 and 13.6219 and 13.4323

Q: And the “HDAC10 TR-FRET relative signal” value (TwinStrep-GST-HDAC10; log conc -6.32148)?
A: 35.3961 and 30.9531 and 27.2587

Q: What about the “HDAC10 TR-FRET relative signal” value (TwinStrep-GST-HDAC10; log conc -6.92082) of the same molecule?
A: 58.0202 and 63.7897 and 66.3493

Q: And the “HDAC10 TR-FRET relative signal” value (TwinStrep-GST-HDAC10; log conc -7.57349)?
A: 84.4678 and 78.5713 and 85.276

Q: And the “HDAC10 TR-FRET relative signal” value (TwinStrep-GST-HDAC10; log conc -8.06198)?
A: 102.777 and 109.857 and 101.86
